Test results reported in patent publication US20240368133A1, “Compounds for the Treatment of Pain, in Particular, Neuropathic Pain, and/or Other Diseases or Disorders that are Associated with AT2R and/or AT2R Mediated Signaling” (Confo Therapeutics N.V., priority 2021, published 2024).

Key:
human AT2R fused to Cb23 = human AT2R fused to Cb23 (Homo sapiens, UniProt P50052); experiment: Radioligand binding assay, displacement of 125I-[Sar1, Ile8]-Angiotensin II, hAT2R Cb23; details: displacement of 125I-[Sar1, Ile8]-Angiotensin II, human AT2R fused to Cb23, HEK-293 cell membrane preparations; read-out: Binding affinity on hAT2R_Cb23 IC50
Protocol: (§1) All synthesized ligands were evaluated in a radioligand assay by displacing ^125I-[Sar1, Ile8]-Angiotensin II (Perkin Elmer, NEX248050UC) from human AT2R fused to Cb23 or human/rodent/cynomolgus/minipig/dog WT AT2R in HEK-293 cells membrane preparations, using C21 (Vicore Pharma) and Angiotensin II (endogenous ligand) as reference. The affinity was determined using an eight-point dose-response curve, each point performed in duplicates. The compounds were also evaluated in a counterscreen binding assay for displacement of ^125I-[Sar1, Ile8]-Angiotensin II binding to human AT1R in HEK-293 cell membranes. For AT1R, the percent displacement was determined at 1 μM and […] (in duplicates) or using an eight-point dose-response curve, each point performed in duplicates with Candesartan and Losartan used as reference.
(§2) For the AT2R/AT1R binding assays, cell membranes, expressing AT2R_Cb23, AT2R or AT1R, were incubated with 0.05 nM ^125I-[Sarl, Ile8]-Ang II. The ligand competition assay was performed in a total volume of 100 μL assay buffer (50 mM Tris, 5 mM MgCl2, 1 mM EDTA, 0.1% BSA, pH 7.4), at concentrations ranging from […] to 10 μM. For each experiment, each ligand concentration was tested in duplicate. Non-specific binding (NSB) was determined by the inclusion of 10 μM unlabeled [Sarl]-Ang II (Sigma Aldrich). The reaction was initiated by the addition of radioligand, after which the plates were incubated at 25° C. for one hour. The reaction was terminated by rapid filtration using a vacuum harvester, applying six washes with 100 μL of ice-cold wash buffer (50 mM Tris.HCl, pH 7.4). The filter plates GF/C (Perkin Elmer) were pre-soaked in 0.5% PEI. The residual amount of radioactivity was determined via liquid scintillation counting. IC50 values, representing the concentration at which each ligand displaced 50% of ^125I-[Sarl, Ile8]-Ang II, were calculated using GraphPad Prism 7.02 by applying a Non-linear regression equation (variable slope, four parameters) on the data. The obtained values serve as affinity estimates for each ligand and their ability to compete against the radioligand for binding with AT2R or AT1R, respectively.

human AT1R = human AT1R (Homo sapiens (Human), UniProt P30556); experiment: Counterscreen radioligand binding assay, displacement of 125I-[Sar1, Ile8]-Angiotensin II, hAT1R WT; details: 125I-[Sar1, Ile8]-Ang II, semi-quantitative score; for inhibition at 1 µM: compound at 1 μM, read-out: % Displaced radioligand at 1 μM; for inhibition at 10 µM: compound at 10 μM, read-out: % Displaced radioligand at 10 μM
Protocol: as §1, §2

Sequence of human AT1R (P30556 whole entry): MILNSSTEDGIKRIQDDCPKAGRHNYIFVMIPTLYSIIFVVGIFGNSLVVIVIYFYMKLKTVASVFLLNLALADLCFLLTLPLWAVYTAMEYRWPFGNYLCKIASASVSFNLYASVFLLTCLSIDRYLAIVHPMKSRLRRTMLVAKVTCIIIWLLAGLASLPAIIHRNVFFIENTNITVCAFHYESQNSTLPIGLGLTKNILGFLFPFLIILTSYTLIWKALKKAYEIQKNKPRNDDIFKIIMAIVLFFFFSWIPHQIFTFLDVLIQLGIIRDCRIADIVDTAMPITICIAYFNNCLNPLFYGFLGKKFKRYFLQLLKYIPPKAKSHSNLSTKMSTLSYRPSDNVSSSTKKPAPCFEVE
Sequence of human AT2R fused to Cb23 (P50052 whole entry, looked up, the tested form may be a part): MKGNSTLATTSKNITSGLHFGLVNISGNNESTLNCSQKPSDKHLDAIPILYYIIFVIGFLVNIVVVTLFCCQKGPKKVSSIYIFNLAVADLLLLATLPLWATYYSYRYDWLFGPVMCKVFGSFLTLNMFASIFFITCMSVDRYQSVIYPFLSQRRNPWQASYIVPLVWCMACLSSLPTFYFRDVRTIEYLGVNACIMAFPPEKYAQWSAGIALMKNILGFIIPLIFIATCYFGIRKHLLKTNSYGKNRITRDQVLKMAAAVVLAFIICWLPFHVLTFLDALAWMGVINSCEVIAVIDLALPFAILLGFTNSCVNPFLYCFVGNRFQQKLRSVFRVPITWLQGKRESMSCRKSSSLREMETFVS

Row | IC50 (human AT2R fused to Cb23) [µM] | inhibition at 1 µM (human AT1R) [%] | inhibition at 10 µM (human AT1R) [%] | SMILES
1 | 19.7 | < 30 | < 30 | COc1ccc(-c2nn[nH]n2)c(N2CCN(Cc3nc4ccccc4n3C)CC2)c1 [Compound A-22, 2-[[4-[5-methoxy-2-(2H-tetrazol-5-yl)phenyl]piperazin-1-yl]methyl]-1-methyl-benzimidazole]
2 | 2.57 | < 30 | < 30 | CC(C)Cc1ccc(-c2nn[nH]n2)c(C(=O)N2CCN(Cc3cccnn3)CC2)c1 [Compound A-239, [5-isobutyl-2-(2H-tetrazol-5-yl)phenyl]-[4-(pyridazin-3-ylmethyl)piperazin-1-yl]methanone]
3 | 0.681 | < 30 | < 30 | CC(C)Cc1ccc(-c2nn[nH]n2)c(N2CCN(Cc3cccnn3)CC2)c1F [Compound A-165, 3-[[4-[2-fluoro-3-isobutyl-6-(2H-tetrazol-5-yl)phen-yl]piperazin-1-yl]-methyl]pyridazine]
4 | 1.19 | < 30 | < 30 | CC(C)Cc1cc(N2CCN(Cc3nc4ccccc4s3)CC2)c(-c2nn[nH]n2)cc1F [Compound A-133, 2-[[4-[4-fluoro-5-isobutyl-2-(2H-tetrazol-5-yl)phen-yl]piperazin-1-yl]-methyl]-1,3-benzo-thiazole]
5 | 6.98 | < 30 | < 30 | CC(C)Cc1ccc(-c2nn[nH]n2)c(N2CCN(Cc3cnccn3)CC2)c1 [Compound A-93, 2-[[4-[5-isobutyl-2-(2H-tetrazol-5-yl)-phenyl]piperazin-1-yl]methyl]pyr-azine]
6 | 0.3 | < 30 | < 30 | CC(C)Cc1cc(F)c(-c2nn[nH]n2)c(N2CCN(C(=O)c3ccccn3)CC2)c1 [Compound A-215, [4-[3-fluoro-5-isobutyl-2-(2H-tetrazol-5-yl)phen-yl]piperazin-1-yl]-(2-pyridyl)meth-anone]
7 | 7.07 | < 30 | < 30 | Cc1ccc(CN2CCN(c3cc(CC(C)C)ccc3-c3nn[nH]n3)CC2)nn1 [Compound A-113]
8 | 0.389 | < 30 | < 30 | CC(C)Cc1cc(F)c(-c2nn[nH]n2)c(N2CCN(Cc3ncccc3Cl)CC2)c1 [Compound A-193, 1-[(3-chloro-2-pyridyl)methyl]-4-[3-fluoro-5-isobutyl-2-(2H-tetrazol-5-yl)phenyl]piperazine]
9 | 0.0531 | < 30 | < 30 | CC(C)Cc1cc(F)c(-c2nn[nH]n2)c(N2CCN(Cc3cc(Cl)ccn3)CC2)c1 [Compound A-191, 1-[(4-chloro-2-pyridyl)methyl]-4-[3-fluoro-5-isobutyl-2-(2H-tetrazol-5-yl)phenyl]piperazine]
10 | 33.6 |  |  | O=C(O)c1ccccc1CN1CCN(c2nc3ccccc3s2)CC1 [Compound A-01, 2-[[4-(1,3-benzothiazol-2-yl)piperazin-1-yl]methyl]benzoic acid]
11 | 33.9 |  |  | Cc1nccc(CN2CCN(c3cc(CC(C)C)ccc3-c3nn[nH]n3)CC2)n1 [Compound A-99]
12 | 18.8 |  |  | CC(C)Cc1ccc(-c2nn[nH]n2)c(CN2CCN(Cc3cccnn3)CC2)c1 [Compound A-238, 3-[[4-[[5-isobutyl-2-(2H-tetrazol-5-yl)phenyl]methyl]-piperazin-1-yl]-methyl]pyridazine]
13 | 61.7 |  |  | COCCOc1ccc(-c2nn[nH]n2)c(N2CCN(Cc3nc4ccccc4s3)CC2)c1 [Compound A-56, 2-[[4-[5-(2-meth-oxyethoxy)-2-(2H-tetrazol-5-yl)phen-yl]piperazin-1-yl]-methyl]-1,3-benzo-thiazole]
14 | 18.1 |  |  | Fc1cc(-c2nn[nH]n2)c(N2CCN(Cc3nc4ccccc4s3)CC2)cc1C1CC1 [Compound A-124, 2-[[4-[5-cycloprop-yl-4-fluoro-2-(2H-tetrazol-5-yl)phen-yl]piperazin-1-yl]-methyl]-1,3-benzo-thiazole]
15 | 0.442 |  |  | CC(C)Cc1cc(F)c(-c2nn[nH]n2)c(N2CCC(Cc3ccccn3)CC2)c1 [Compound A-237, 2-[[1-[3-fluoro-5-isobutyl-2-(2H-tetrazol-5-yl)phenyl]-4-piperidyl]methyl]pyridine]
16 | 34.4 |  |  | CC(C)Oc1ccc(-c2nn[nH]n2)c(N2CCN(Cc3cccnn3)CC2)c1F [Compound A-157, 3-[[4-[2-fluoro-3-isopropoxy-6-(2H-tetrazol-5-yl)phen-yl]piperazin-1-yl]-methyl]pyridazine]
17 | 22.8 |  |  | CCS(=O)(=O)NC(=O)c1ccccc1N1CCN(Cc2nc3ccccc3s2)CC1 [Compound A-04, 2-[4-(1,3-benzothiazol-2-ylmethyl)piperazin-1-yl]-N-ethylsulfonyl-benzamide]
18 | 28.8 |  |  | CCNc1cc(-c2nn[nH]n2)c(N2CCN(Cc3nc4ccccc4s3)CC2)cc1C1CC1 [Compound A-130, 4-[4-(1,3-benzothi-azol-2-ylmethyl)-piperazin-1-yl]-2-cyclopropyl-N-eth-yl-5-(2H-tetrazol-5-yl)aniline]
19 | 23.7 |  |  | c1cnnc(CN2CCN(c3cc(C4CC4)ccc3-c3nn[nH]n3)CC2)c1 [Compound A-91, 3-[[4-[5-cyclopropyl-2-(2H-tetrazol-5-yl)phenyl]piperazin-1-yl]methyl]pyridazine]
20 | 13.3 |  |  | CC(=O)Nc1cc(-c2nn[nH]n2)c(N2CCN(Cc3nc4ccccc4s3)CC2)cc1C1CC1 [Compound A-131, N-[4-[4-(1,3-benzo-thiazol-2-ylmethyl)-piperazin-1-yl]-2-cyclopropyl-5-(2H-tetrazol-5-yl)phen-yl]acetamide]
21 | 16.5 |  |  | Cc1cc(=O)nc(CN2CCN(c3cc(CC(C)C)ccc3-c3nn[nH]n3)CC2)[nH]1 [Compound A-100, 2-[[4-[5-isobutyl-2-(2H-tetrazol-5-yl)phenyl]piperazin-1-yl]methyl]-6-methyl-1H-pyrimidin-4-one]
22 | 22.7 |  |  | CCc1cnc(-c2nn[nH]n2)c(N2CCN(Cc3nc4ccccc4s3)CC2)c1 [Compound A-141]
23 | 12.2 |  |  | Cc1ncc(CN2CCN(c3cc(CC(C)C)ccc3-c3nn[nH]n3)CC2)cn1 [Compound A-103, 5-[[4-[5-isobutyl-2-(2H-tetrazol-5-yl)-phenyl]piperazin-1-yl]methyl]-2-methyl-pyrimidine]
24 | 11.8 |  |  | CN1CCN(c2ccc(-c3nn[nH]n3)c(N3CCN(Cc4nc5ccccc5s4)CC3)c2)CC1 [Compound A-66, 2-[[4-[5-(4-methyl-piperazin-1-yl)-2-(2H-tetrazol-5-yl)-phenyl]piperazin-1-yl]methyl]-1,3-benzothiazole]
25 | 111 |  |  | O=c1[nH]c(CN2CCN(c3ccccc3-c3nn[nH]n3)CC2)nc2ccccc12 [Compound A-26, 2-[[4-[2-(2H-tetrazol-5-yl)phen-yl]piperazin-1-yl]-methyl]-3H-quin-azolin-4-one]
26 | 17.2 |  |  | c1ccc2sc(CN3CCN(c4cc(OCC5COC5)ccc4-c4nn[nH]n4)CC3)nc2c1 [Compound A-58, 2-[[4-[5-(oxetan-3-ylmethoxy)-2-(2H-tetrazol-5-yl)phen-yl]piperazin-1-yl]-methyl]-1,3-benzo-thiazole]
27 | 14.8 |  |  | c1ccc2sc(CN3CCN(c4cc(C5CC5)ncc4-c4nn[nH]n4)CC3)nc2c1 [Compound A-144, 2-[[4-[2-cycloprop-yl-5-(2H-tetrazol-5-yl)-4-pyridyl]piper-azin-1-yl]methyl]-1,3-benzothiazole]
28 | 20.7 |  |  | CCOc1cc(-c2nn[nH]n2)c(N2CCN(Cc3cccnn3)CC2)cc1OC(C)C [Compound A-162, 3-[[4-[4-ethoxy-5-isopropoxy-2-(2H-tetrazol-5-yl)phen-yl]piperazin-1-yl]-methyl]pyridazine]
29 | 17.8 |  |  | CC(C)Cc1ccc(-c2nn[nH]n2)c(N2CCN(Cc3ccn(C)n3)CC2)c1 [Compound A-110, 1-[5-isobutyl-2-(2H-tetrazol-5-yl)phen-yl]-4-[(1-methyl-pyrazol-3-yl)meth-yl]piperazine]
30 | 22.1 |  |  | Cc1cc(-c2nn[nH]n2)c(N2CCN(Cc3cccnn3)CC2)cc1CC(C)C [Compound A-166, 3-[[4-[5-isobutyl-4-methyl-2-(2H-tetrazol-5-yl)phen-yl]piperazin-1-yl]-methyl]pyridazine]
